From US5021415A, “Triazine carboxylic acids and esters” (Bristol-Myers Squibb Co., priority 1990, dated 1991)
≈ marks a conversion by molar mass, not a printed value.

The compounds below were run on ADP-induced aggregation of human platelets. Details: vs ADP, 0.5 mcg/mL final; human platelet rich plasma; Table 2; read-out: Inhibition of Human Platelet Aggregation of Formula II Compounds (IC50) Vs ADP.
Assay type: cell-based

IC50 [mg/L]	SMILES
1 (≈ 2.27 µM)	COC(=O)COc1cccc(CCn2nc(-c3ccccc3)c(-c3ccccc3)nc2=O)c1 [Example 5, Methyl [3-[2-(2,3-dihydro-3-oxo-5,6-diphenyl-1,2,4-triazin-2-yl)ethyl]phenoxy]acetate]
0.9 (≈ 2.11 µM)	O=C(O)COc1cccc(CCn2nc(-c3ccccc3)c(-c3ccccc3)nc2=O)c1 [Example 6, [3-[2-(2,3-Dihydro-3-oxo-5,6-diphenyl 1,2,4-triazin-2-yl)ethyl]phenoxy]acetic Acid]

Same assay, conditions: vs. ADP, 0.5 mcg/mL final; human platelet rich plasma; Table 1; read-out: Inhibition of Human Platelet Aggregation of Formula I Compounds (IC50) vs. ADP

IC50 [mg/L]	SMILES
6.8 (≈ 16.2 µM)	COC(=O)CCCCCCCCn1nc(-c2ccccc2)c(-c2ccccc2)nc1=O [Example 1, Methyl 3-oxo-5,6-diphenyl-1,2,4-triazine-2(3H)-nonanoate]
2.2 (≈ 5.43 µM)	O=C(O)CCCCCCCCn1nc(-c2ccccc2)c(-c2ccccc2)nc1=O [Example 2, 3-Oxo-5,6-diphenyl-1,2,4-triazine-2(3H)-nonanoic acid]
4.6 (≈ 11.3 µM)	COC(=O)CCCCCCCn1nc(-c2ccccc2)c(-c2ccccc2)nc1=O [Example 3, Methyl 3-Oxo-5,6-diphenyl-1,2,4-triazine-2(3H)-octanoate]
3.1 (≈ 7.92 µM)	O=C(O)CCCCCCCn1nc(-c2ccccc2)c(-c2ccccc2)nc1=O [Example 4, 3-Oxo-5,6-diphenyl-1,2,4-triazin-2(3H)-octanoic Acid]
